“And” between values parts separate entries of the source, which are not always exact repeats. Identical values can stand only once.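 The compound was tested at five concentrations on cells cultured in 96-well plates, with a 48-hour exposure period. At the GI50, growth is halved. TGI marks complete inhibition of growth.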
Legend:
Experiment in all cases: NCI tumour cell line growth inhibition, 48 h
[1] = test system: SK-MEL-28 melanoma
[2] = test system: SNB-78 CNS
[3] = test system: IGROV1 ovarian
[4] = test system: T-47D breast
[5] = test system: LOX IMVI melanoma
[6] = test system: HT29 colon
[7] = test system: DMS 273 small cell lung
[8] = test system: DU-145 prostate
[9] = test system: KM12 colon
[10] = test system: SNB-19 CNS
[11] = test system: TK-10 renal
[12] = test system: OVCAR-8 ovarian
[13] = test system: LXFL 529 NSCLC
[14] = test system: 786-0 renal
[15] = test system: HCT-116 colon
[16] = test system: OVCAR-3 ovarian
[17] = test system: UACC-62 melanoma
[18] = test system: CAKI-1 renal
[19] = test system: KM20L2 colon
[20] = test system: DLD-1 colon
[21] = test system: HCC-2998 colon
[22] = test system: ACHN renal
[23] = test system: M14 melanoma
[24] = test system: OVCAR-5 ovarian
[25] = test system: NCI-H460 lung
[26] = test system: SN12C renal
[27] = test system: UACC-257 melanoma
[28] = test system: BT-549 breast
[29] = test system: HOP-62 NSCLC
[30] = test system: M19-MEL melanoma
[31] = test system: NCI-H522 lung
[32] = test system: XF 498 CNS
[33] = test system: PC-3 prostate
[34] = test system: SK-MEL-5 melanoma
[35] = test system: OVCAR-4 ovarian
[36] = test system: NCI-H23 lung
[37] = test system: A498 renal
[38] = test system: SW-620 colon
[39] = test system: UO-31 renal
[40] = test system: SF-268 CNS
[41] = test system: CCRF-CEM leukemia
[42] = test system: COLO 205 colon
[43] = test system: MDA-MB-231 breast
[44] = test system: HOP-92 NSCLC
[45] = test system: MOLT-4 leukemia
[46] = test system: U251 CNS
[47] = test system: K-562 leukemia
[48] = test system: HS 578T breast
[49] = test system: RPMI-8226 leukemia
[50] = test system: SNB-75 CNS
[51] = test system: SK-OV-3 ovarian
[52] = test system: SK-MEL-2 melanoma
[53] = test system: SR leukemia
[54] = test system: A549 NSCLC
[55] = test system: SF-295 CNS
[56] = test system: HL-60(TB) leukemia
[57] = test system: RXF 393 renal
[58] = test system: EKVX NSCLC
[59] = test system: SF-539 CNS
[60] = test system: HCT-15 colon
[61] = test system: DMS 114 small cell lung
[62] = test system: MALME-3M melanoma
[63] = test system: HOP-18 NSCLC
[64] = test system: NCI-H226 lung
[65] = test system: RXF-631 renal
[66] = test system: MCF7 breast
[67] = test system: MDA-N
[68] = test system: MDA-MB-435

CC[C@@]1(O)C(=O)OCc2c1cc1n(c2=O)Cc2c-1nc1ccccc1c2Cl
TGI [1]: 63.9 µM
TGI [2]: 87.5 µM
TGI [3]: 16 µM
TGI [4]: 0.349 µM
TGI [5]: 0.387 µM
TGI [6]: 5.62 µM
TGI [7]: 0.578 µM
TGI [8]: 0.104 µM
TGI [9]: 1.83 µM
TGI [10]: 15.5 µM
TGI [11]: 80.8 µM
TGI [12]: 2.13 µM
TGI [13]: 34.7 µM
TGI [14]: 0.126 µM
TGI [15]: 1.11 µM
TGI [16]: 4.84 µM
TGI [17]: 0.107 µM
TGI [18]: 1.99 µM
TGI [19]: 28.7 µM
TGI [20]: 63.4 µM
TGI [21]: 9.58 µM
TGI [22]: 0.0684 µM
TGI [23]: 0.318 µM
TGI [24]: 3.65 µM
TGI [25]: 0.101 µM
TGI [26]: 0.683 µM
TGI [27]: 7.01 µM
TGI [28]: 4.89 µM
TGI [29]: 0.0206 µM
TGI [30]: 3.43 µM
TGI [31]: 1.28 µM
TGI [32]: 2.15 µM
TGI [33]: > 100 µM
TGI [34]: 0.134 µM
TGI [35]: 4.61 µM
TGI [36]: 0.028 µM
TGI [37]: 0.352 µM
TGI [38]: 39.7 µM
TGI [39]: 0.109 µM
TGI [40]: 12.6 µM
TGI [41]: 0.172 µM
TGI [42]: 27.4 µM
TGI [43]: > 80.3 µM
TGI [44]: 2.07 µM
TGI [45]: 0.113 µM
TGI [46]: 0.445 µM
TGI [47]: > 100 µM
TGI [48]: 43.3 µM
TGI [49]: 1.42 µM
TGI [50]: 0.259 µM
TGI [51]: 4.29 µM
TGI [52]: 7.72 µM
TGI [53]: 0.186 µM
TGI [54]: 3.76 µM
TGI [55]: 0.511 µM
TGI [56]: 0.132 µM
TGI [57]: 0.116 µM
TGI [58]: 33.6 µM
TGI [59]: 0.022 µM
TGI [60]: 39.5 µM
TGI [61]: 2.06 µM
TGI [62]: 12.6 µM
TGI [63]: 18.3 µM
TGI [64]: 0.022 µM

Cc1ccc(NC(=O)SCCC(=O)O)cc1
TGI [1]: > 100 µM
TGI [2]: > 100 µM
TGI [3]: > 100 µM
TGI [5]: > 100 µM
TGI [6]: > 100 µM
TGI [7]: > 100 µM
TGI [9]: > 100 µM
TGI [10]: > 100 µM
TGI [11]: > 100 µM
TGI [12]: > 100 µM
TGI [13]: > 100 µM
TGI [14]: > 100 µM
TGI [15]: > 100 µM
TGI [16]: > 100 µM
TGI [17]: > 100 µM
TGI [18]: > 100 µM
TGI [19]: > 100 µM
TGI [20]: > 100 µM
TGI [21]: > 100 µM
TGI [22]: > 100 µM
TGI [23]: > 100 µM
TGI [24]: > 100 µM
TGI [25]: > 100 µM
TGI [26]: > 100 µM
TGI [27]: > 100 µM
TGI [29]: > 100 µM
TGI [31]: > 100 µM
TGI [35]: > 100 µM
TGI [36]: > 100 µM
TGI [37]: > 100 µM
TGI [38]: > 100 µM
TGI [39]: > 100 µM
TGI [40]: 94.9 µM
TGI [41]: > 100 µM
TGI [42]: > 100 µM
TGI [45]: > 100 µM
TGI [46]: > 100 µM
TGI [47]: > 100 µM
TGI [49]: > 100 µM
TGI [50]: 66.7 µM
TGI [52]: > 100 µM
TGI [53]: > 100 µM
TGI [54]: > 100 µM
TGI [55]: > 100 µM
TGI [56]: > 100 µM
TGI [57]: > 100 µM
TGI [58]: > 100 µM
TGI [65]: > 100 µM
TGI [59]: > 100 µM
TGI [60]: > 100 µM
TGI [61]: > 100 µM
TGI [64]: > 100 µM

Cc1nc2c(o1)C(=O)c1ccccc1C2=Nc1ccccc1
TGI [1]: 3.91 µM
TGI [2]: 9.13 µM
TGI [3]: 20.6 µM
TGI [4]: 7.65 µM
TGI [5]: 5.2 µM
TGI [6]: 33.3 µM
TGI [7]: 6.1 µM
TGI [8]: 3.33 µM
TGI [9]: 14.4 µM
GI50 [10]: 11 µM
TGI [10]: 23 µM
TGI [11]: 41.9 µM
GI50 [12]: 4.16 µM
TGI [12]: 9.66 µM
TGI [13]: 12.3 µM
TGI [14]: > 55.8 µM
GI50 [15]: 3.35 µM
TGI [15]: 5.77 µM
GI50 [16]: 2.5 µM
TGI [16]: 4.52 µM and 8.04 µM
GI50 [17]: 2.07 µM
TGI [17]: 3.84 µM and 6.7 µM
TGI [18]: 32 µM
TGI [19]: 42 µM
TGI [20]: 29.2 µM
TGI [21]: 28.5 µM
GI50 [22]: 4.72 µM
TGI [22]: > 37.7 µM
GI50 [23]: 1.64 µM
TGI [23]: 3 µM and 2.11 µM
TGI [24]: 11.8 µM
TGI [25]: 12.3 µM
GI50 [26]: 2.99 µM
TGI [26]: 7.38 µM and 6.18 µM
TGI [27]: 5.46 µM and 4.39 µM
TGI [28]: 3.13 µM
TGI [29]: 6.05 µM
GI50 [30]: 1.55 µM
TGI [30]: 3.24 µM and 2.97 µM
GI50 [31]: 3.21 µM
TGI [31]: 7.81 µM and 4.27 µM
TGI [32]: 7.69 µM and 6.99 µM
TGI [33]: 6.51 µM
GI50 [34]: 1.73 µM
TGI [34]: 3.1 µM and 2.72 µM
GI50 [35]: 2.15 µM
TGI [35]: 6.5 µM and 5.86 µM
GI50 [36]: 2.31 µM
TGI [36]: 6.17 µM and 6.48 µM
GI50 [38]: 3.6 µM
TGI [38]: 7.86 µM
GI50 [39]: 3.66 µM
TGI [39]: 7.62 µM
GI50 [40]: 3.11 µM
TGI [40]: > 31.6 µM
TGI [66]: 5.47 µM
GI50 [41]: 4.61 µM
TGI [41]: > 65.8 µM
TGI [42]: 27.1 µM
TGI [43]: 18.5 µM
TGI [44]: 6.07 µM
GI50 [45]: 4.55 µM and 4.44 µM
TGI [45]: 34.5 µM
TGI [46]: 3.12 µM and 3.7 µM
GI50 [47]: 4.28 µM
TGI [47]: > 37.4 µM
TGI [48]: 5.38 µM
GI50 [49]: 4.43 µM
TGI [49]: 11.1 µM
TGI [50]: 3.94 µM and 3.81 µM
TGI [51]: 31.2 µM
GI50 [52]: 3.62 µM
TGI [52]: 2.95 µM
TGI [53]: > 93.5 µM
TGI [67]: 0.959 µM
GI50 [54]: 13.2 µM
TGI [54]: 32.3 µM
GI50 [55]: 1.95 µM
TGI [55]: 3.88 µM
GI50 [56]: 3.04 µM
TGI [56]: 11.6 µM
TGI [57]: 3.3 µM
GI50 [58]: 7.57 µM
TGI [58]: > 31.6 µM
GI50 [59]: 1.96 µM
TGI [59]: 3.66 µM and 5.95 µM
TGI [68]: 1.09 µM
GI50 [60]: 3.17 µM
TGI [60]: 7.63 µM
GI50 [61]: 1.78 µM
TGI [61]: 2.89 µM and 3.69 µM
GI50 [62]: 1.69 µM
TGI [62]: 3.06 µM and 2.66 µM
GI50 [63]: 4.27 µM
TGI [63]: 3.39 µM and 10.1 µM
TGI [64]: 31.9 µM

CN/N=C(\C)c1c(O)cc(C)oc1=O
TGI [1]: > 100 µM
TGI [5]: > 100 µM
TGI [6]: > 100 µM
TGI [9]: > 100 µM
TGI [10]: > 100 µM
TGI [11]: > 100 µM
TGI [12]: > 100 µM
TGI [13]: > 100 µM
TGI [14]: > 100 µM
TGI [15]: > 100 µM
TGI [17]: > 100 µM
TGI [18]: > 100 µM
TGI [19]: > 100 µM
TGI [20]: > 100 µM
TGI [21]: > 100 µM
TGI [22]: > 100 µM
TGI [23]: > 100 µM
TGI [25]: > 100 µM
TGI [26]: > 100 µM
TGI [27]: > 100 µM
TGI [29]: > 100 µM
TGI [30]: > 100 µM
TGI [31]: > 100 µM
TGI [35]: > 100 µM
TGI [36]: > 100 µM
TGI [37]: > 100 µM
TGI [38]: > 100 µM
TGI [39]: > 100 µM
TGI [40]: > 100 µM
TGI [41]: > 100 µM
TGI [44]: > 100 µM
TGI [45]: > 100 µM
TGI [46]: > 100 µM
TGI [47]: > 100 µM
TGI [50]: > 100 µM
TGI [51]: > 100 µM
TGI [52]: > 100 µM
TGI [53]: > 100 µM
TGI [54]: > 100 µM
TGI [55]: > 100 µM
TGI [56]: > 100 µM
TGI [58]: > 100 µM
TGI [65]: > 100 µM
TGI [59]: > 100 µM
TGI [60]: > 100 µM
TGI [62]: > 100 µM
TGI [63]: > 100 µM
TGI [64]: > 100 µM
